Reference: patent US10316021B2, “Heteroarylphenoxy benzamide kappa opioid ligands” (Pfizer Inc., priority 2016, dated 2019)
Read-outs that look alike come from different tables or passages of the source.

How the values were obtained:
[1] = biological target: T1, human kappa opioid receptor (hKOR) (Homo sapiens, UniProt P41145); assay: Kappa radioligand binding assay ([3H]diprenorphine, CHO cell membranes); conditions: for Selectivity hMOR/hKOR: selectivity ratio calculated by dividing the hMOR Ki by the hKOR Ki
T1 construct: expressed in transfected cells; host or cells: CHO cells
T1 sequence (P41145 whole entry): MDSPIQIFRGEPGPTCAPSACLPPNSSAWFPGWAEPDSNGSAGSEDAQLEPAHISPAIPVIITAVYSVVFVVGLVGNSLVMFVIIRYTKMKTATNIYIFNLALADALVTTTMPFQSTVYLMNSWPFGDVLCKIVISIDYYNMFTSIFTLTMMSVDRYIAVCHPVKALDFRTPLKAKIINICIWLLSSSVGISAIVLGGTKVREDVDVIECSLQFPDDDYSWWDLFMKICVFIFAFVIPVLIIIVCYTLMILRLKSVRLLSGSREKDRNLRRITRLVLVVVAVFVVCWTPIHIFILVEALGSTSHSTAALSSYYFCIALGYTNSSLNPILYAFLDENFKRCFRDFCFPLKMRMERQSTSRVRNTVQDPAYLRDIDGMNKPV
Procedure, shortened: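 Membranes from CHO cells expressing human kappa receptor incubated 1 h at room temperature with compound and 0.6 nM [3H]diprenorphine in 50 mM Tris pH 7.4, 1 mM EDTA, 5 mM MgCl2. Nonspecific binding defined with 10 μM naltrexone; filtration, scintillation counting; IC50 from 4-parameter fit converted to Ki via Cheng-Prusoff.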

[2] = In vitro intrinsic clearance in human liver microsomes; assay type: in vitro ADME; conditions: for CLint scaled at 2 μM: human, read-out: HLM CLint
Procedure: Determination of In Vitro Intrinsic Clearance in Human Liver Microsomes:
Compounds were prepared as solutions in methanol. The final concentration of methanol in the incubation media was 0.2% (v/v). […] The total incubation volume was 1 mL. The reaction mixture was pre-warmed at 37° C. for 2 min before adding NADPH (1.2 mM). Aliquots (75 μL) of the reaction mixture at 0, 5, 10, 15, and 30 min were added to acetonitrile (200 μL) containing internal standard (terfenadine)(0.05 μg/mL), and the samples were centrifuged at 2500 g for 5 min prior to liquid chromatography/tandem mass spectrometry (LC/MS-MS) analysis of each compound using multiple reaction monitoring (MRM). For control experiments, NADPH was omitted from these incubations.
The microsomal half-life (t1/2) was obtained from a log-linear plot of the substrate depletion vs incubation time and was scaled to hepatic intrinsic clearance (CLint) using the following equation, in which the term t1/2 refers to the in vitro half-life: […]

HepG2 cells = assay: HepG2_Glu ATP viability 72 hr; assay type: cell-based, human; conditions: for cytotoxicity in HepG2 cell line, in words: 72 hours, cellular ATP; for IC50: Homo sapiens, HepG2, glucose-supplemented media, ATP viability, 72 hour exposure, read-out: HepG2 Glu 72 hr
Procedure: This assay was run in a similar manner to the assay as described in Marroquin et al. Toxicological Sciences 97(2), 539-547 (2007) with a modification such that the instant assay was run for a 72 hour period as described below.
The aim of this assay was to measure cytotoxicity of a compound by measuring cell viability. […] The reagent used to quantify the ATP present was Promega Cell Titer-Glo. This reagent works by catalyzing luciferin by luciferase in the presence of Mg^2+, ATP, and molecular oxygen, thus emitting a luminescent signal, which was proportional to the amount of ATP present in the sample.
HepG2 cells grown in glucose-supplemented media were plated in 384 well plates at a density of 1000 cells/well for the 72 hour assay in a total medium volume of 25 μl/well. Plates were then incubated for 24 hours at 37° C., 95% humidity, and 5% CO2 before compound dosing.
After 24 hours to allow cells to attach to the plate, HepG2 cells were exposed to test compounds in an 11-point dose response format with a […], ranging from 300 uM to 0.029 uM for 72 hours. All compounds were tested in triplicate. Following the 72 hour exposure to test compounds, cell viability was determined by measuring the concentration of cellular ATP by adding Promega Cell Titer-Glo according to the manufacturer's directions. The plates were then read on a […] plate reader and data is analyzed using ActivityBase software.

[3] = Shake flask Log D (SFLogD) determination, pH 7.4; assay type: physicochemical; conditions: for logD: shake flask, octan-1-ol / 0.1 M sodium phosphate buffer
Procedure: Shake Flask Log D (SF Log D) Determination:
The Log D determinations were carried out in a similar manner as described by Hay et al. Drug Metabolism and Disposition 37(9), 1864-1870, 2009, the procedure of which is generally described below.
Log D(7.4) Determination. The distribution coefficient of the test compounds between octan-1-ol and 0.1 M sodium phosphate buffer, pH 7.4, was determined by the shake flask methodology in an automated manner. 0.3 mg of compound was dissolved in 300 μL of octan-1-ol and aliquoted in duplicate into a 96-well block. Three hundred microliters of presaturated buffer (2 liters of buffer presaturated with 10 mL of octan-1-ol) was added to the wells, and the solution was vigorously mixed. After centrifugation, the two phases were separated. Ten microliters of a 1:200 dilution of the octan-1-ol layer and 10 μL of a 1:20 dilution of the buffer layer were directly injected onto the high-performance liquid chromatography (HPLC) (for example using an appropriate C18 column, isocratic elution with 90% methanol, 10% water, 2 mM ammonium acetate, and 0.03% formic acid at flow rate of 2 mL/min). The peak areas were corrected for the dilution factors, and the following calculation was applied to determine the mean log D value at pH 7.4 (log D(7.4)): […]

[4] = Table 19, geometric mean of 2-6 determinations unless otherwise indicated (Example 3: >=7), read-out: hKOR binding assay Ki
[5] = Table 20, radioligand binding, read-out: hKOR binding assay Ki
[6] = radioligand binding, [3H]diprenorphine, read-out: hKOR Ki
[7] = pH 7.4, human liver microsomal intrinsic clearance

Ki [1, 4] [nM] | Ki [1, 5] [nM] | Ki [1, 6] [nM] | CLint scaled at 2 μM [2, 7] [mL/min/kg] | CLint scaled at 2 μM ([2]; pH 7.4, human liver microsomes) [mL/min/kg] | IC50 (HepG2 cells) [nM] | logD [3] | Compound | selectivity for KOR over MOR, in words [1] | Selectivity hMOR/hKOR [1] | hepatic / metabolic clearance in human liver microsomes, in words [2] | cytotoxicity in HepG2 cell line, in words (HepG2 cells) | Log D, in words [3] | Ki ([1]; hKOR binding assay Ki, Table 20, radioligand binding) [nM]
1.47 | 1.5 | 1 to 3 | 8 | < 20 | > 300000 | 1.4 | COc1nn(C)cc1[C@@H]1CCCN1Cc1ccc(Oc2ccc(C(N)=O)cc2)cc1 (single isomer, unassigned) [Example 12] | more selective than the phenyl examples, Comparators A and B | 31 | surprisingly low intrinsic metabolic turnover rates | little to no cytotoxicity | much more in line with drugs that progress to Phase II | –
2.56 | 2.6 | 1 to 3 | 12 | < 20 | > 300000 | 1.9 | COc1nn(C)cc1C1CCCN1Cc1ccc(Oc2ccc(C(N)=O)cc2F)cc1 (single isomer, unassigned; (-)) [Example 8, (−)-3-Fluoro-4-(4-{[2-(3-methoxy-1-methyl-1H-pyrazol-4-yl)pyrrolidin-1-yl]methyl}phenoxy)benzamide] | more selective than the phenyl examples, Comparators A and B | 37 | surprisingly low intrinsic metabolic turnover rates | little to no cytotoxicity | much more in line with drugs that progress to Phase II | –
– | 3.1 | – | 20 | – | 174000 | 1.8 | NC(=O)c1ccc(Oc2ccc(CN3CCC(c4ccccc4)C3)cc2)nc1 (stereo not shown) [Comparator A, reference compound] | – | 0.03 | – | – | – | –
– | – | – | 89 | – | 112000 | 2.7 | NC(=O)c1ccc(Oc2ccc(CN3CCCCC3c3ccccc3)cc2)nc1 (stereo not shown) [Comparator B] | – | – | high hepatic clearance | – | – | –
– | 1.2 | – | 320 | – | 72000 | 3.2 | NC(=O)c1ccc(Oc2ccc(CN3CCCC3c3cccnc3)cc2)c(Cl)c1 (stereo not shown) [Comparator C] | – | 17 | high hepatic clearance | – | – | –

More lines, now with the values behind:

Compound | Ki [1, 4] [nM] | Ki [1, 5] [nM] | Ki [1, 6] [nM] | CLint scaled at 2 μM [2, 7] [mL/min/kg] | CLint scaled at 2 μM ([2]; pH 7.4, human liver microsomes) [mL/min/kg] | IC50 (HepG2 cells) [nM] | logD [3] | selectivity for KOR over MOR, in words [1] | Selectivity hMOR/hKOR [1] | hepatic / metabolic clearance in human liver microsomes, in words [2] | cytotoxicity in HepG2 cell line, in words (HepG2 cells) | Log D, in words [3] | Ki ([1]; hKOR binding assay Ki, Table 20, radioligand binding) [nM]
NC(=O)c1ccc(Oc2ccc(CN3CCCC3c3ccccc3)cc2)nc1 (stereo not shown) [Comparator D] | – | 5.8 | – | 45 | – | 69000 | 2.3 | – | 28 | – | – | – | –
Cc1cc(C)cc([C@@H]2CCCN2Cc2ccc(Oc3ccc(C(N)=O)cc3F)cc2)c1 [Comparator E, reference compound] | – | 0.2 | – | 30 | – | 43000 | 4.6 | – | 39 | – | cytotoxicity at lower concentrations | significantly higher Log D values | –
NC(=O)c1ccc(Oc2ccc(CN3CCC[C@H]3c3cccc(F)c3)cc2)c(F)c1 [Comparator F] | – | – | – | 36 | – | 56000 | 3.7 | – | 35 | – | cytotoxicity at lower concentrations | significantly higher Log D values | 1.1
Cc1nn(C)cc1[C@@H]1CCCN1Cc1ccc(Oc2ccc(C(N)=O)cc2)cc1 [Example 11, 4-(4-{[(2S)-2-(1,3-Dimethyl-1H-pyrazol-4-yl)pyrrolidin-1-yl]methyl}phenoxy)benzamide] | 1.21 | 1.2 | 1 to 3 | 20 | < 20 | 267000 | 1.9 | more selective than the phenyl examples, Comparators A and B | 42 | surprisingly low intrinsic metabolic turnover rates | little to no cytotoxicity | much more in line with drugs that progress to Phase II | –
